According to patent publication US12157717B2, “Compounds for the treatment of bovine or swine respiratory disease” (Intervet Inc., priority 2018, dated 2024):
In brackets after ≈: the same amount, converted by molar mass.

What was measured:
Type in all cases: cell-based
[1] = system: Mannheimia haemolytica MH 13093 (XB0472-6014.1); assay: MIC, broth-microdilution (CLSI), strain MH 13093; conditions: Mannheimia haemolytica XB0472-6014.1, BRD field isolate
Method: (§1) The Minimum inhibitory concentrations (MIC) of compounds according to the invention for a number of veterinary bacterial pathogens were determined by the broth-microdilution method according to CLSI document VETO 1-A4.
(§2) Microdilution trays containing a doubling dilution series of the test compound were used for the tests. The MIC results were interpreted according to the CLSI documents VET01-S3. The lowest concentration of compound at which no visible growth (i.e. no turbidity) detected by the unaided eye was recorded as the MIC.

[2] = system: Mannheimia haemolytica MH 13065 (XB0446-6003.9); assay: MIC, broth-microdilution (CLSI), strain MH 13065; conditions: Mannheimia haemolytica XB0446-6003.9, BRD field isolate
Method: as §1, §2

[3] = system: Mannheimia haemolytica MH 6357 (M7/2); assay: MIC, broth-microdilution (CLSI), strain MH 6357; conditions: Mannheimia haemolytica M7/2, reference strain (cattle infection strain)
Method: as §1, §2

[4] = system: Pasteurella multocida PM 6391 (ATCC 43137); assay: MIC, broth-microdilution (CLSI), strain PM 6391; conditions: Pasteurella multocida ATCC 43137, reference strain
Method: as §1, §2

[5] = system: Mannheimia haemolytica MH 10720 (154); assay: MIC, broth-microdilution (CLSI), strain MH 10720; conditions: Mannheimia haemolytica 154, BRD field isolate
Method: as §1, §2

[6] = system: Pasteurella multocida PM 10775 (080130003051); assay: MIC, broth-microdilution (CLSI), strain PM 10775; conditions: Pasteurella multocida 080130003051, BRD field isolate
Method: as §1, §2

[7] = system: Mannheimia haemolytica MH 12587 (1071), macrolide-resistance: erm+, E+; assay: MIC, broth-microdilution (CLSI), strain MH 12587; conditions: Mannheimia haemolytica 1071, BRD field isolate
Method: as §1, §2

[8] = system: Pasteurella multocida PM 12080 (IV102277-0093); assay: MIC, broth-microdilution (CLSI), strain PM 12080; conditions: Pasteurella multocida IV102277-0093, BRD field isolate
Method: as §1, §2

[9] = system: Pasteurella multocida PM 6267 (P 2225 (L386)); assay: MIC, broth-microdilution (CLSI), strain PM 6267; conditions: Pasteurella multocida P 2225 (L386), reference strain (mouse infection strain)
Method: as §1, §2

[10] = system: Mannheimia haemolytica MH 6374 (ATCC 33396); assay: MIC, broth-microdilution (CLSI), strain MH 6374; conditions: Mannheimia haemolytica ATCC 33396, reference strain
Method: as §1, §2

## CNC(=O)C(NC(=O)c1ccc(C#Cc2ccc(CNCC(F)(F)F)cc2)cc1)C(=O)NO (stereo not shown) [Compound 19]
[1]
  MIC MH 13093: 0.2 µM (≈ 0.0925 µg/mL)
[2]
  MIC MH 13065: 0.2 µM (≈ 0.0925 µg/mL)
[3]
  MIC MH 6357: 0.2 µM (≈ 0.0925 µg/mL)
[4]
  MIC PM 6391: ≤0.1 µM
[5]
  MIC MH 10720: ≤0.1 µM
[6]
  MIC PM 10775: ≤0.1 µM
[7]
  MIC MH 12587: 0.8 µM (≈ 0.37 µg/mL)
[8]
  MIC PM 12080: ≤0.1 µM
[9]
  MIC PM 6267: ≤0.1 µM
[10]
  MIC MH 6374: 0.4 µM (≈ 0.185 µg/mL)
